This note sets out measurements from patent US6960574B2, “Antagonists of RF-amide neuropeptides” (University of Florida, priority 2002, dated 2005).

Square brackets hold non-standard residues; d marks the D form. Peptide text beside a SMILES is read from it. * marks the point of attachment. ξ: configuration not given here. Dansyl = CN(C)c1cccc2c(S(=O)(=O)*)cccc12; ξL = CC(C)CC(N)C(=O)O

This test relates to receptor labeled by the radioiodinated analogue of 1 (4, [125I]-YLFQPQRF-NH2); neuropeptide FF receptor. Put plainly: Competitive radioligand binding against 4 ([125I]Y8F-amide). The settings on record: mixture-based positional scanning; difference from averaged radioligand displacement of whole library (0); about 80 a.u. = 10-fold change in Ki.
On to `CC[C@H](C)[C@H](NC(=O)[C@H](Cc1ccc(O)cc1)NS(=O)(=O)c1cccc2c(N(C)C)cccc12)C(=O)N[C@@H](CCCNC(=N)N)C(N)=O` [Dansyl-YIR-amide] (Dansyl-Tyr-Ile-Arg-NH2), for which the “Relative Binding Index (RBI)” value was 13 a.u.
In the case of `CN(C)c1cccc2c(S(=O)(=O)N[C@@H](Cc3ccccc3)C(=O)N3CCC[C@H]3C(=O)N[C@@H](CCCNC(=N)N)C(N)=O)cccc12` [Dansyl-FPR-amide], the “Relative Binding Index (RBI)” value came out at 13 a.u.
Regarding `CN(C)c1cccc2c(S(=O)(=O)N[C@@H](CO)C(=O)N[C@@H](CCC(=O)O)C(=O)N[C@@H](CCCNC(=N)N)C(N)=O)cccc12` [Dansyl-SER-amide] (Dansyl-Ser-Glu-Arg-NH2), the “Relative Binding Index (RBI)” value was 16 a.u.
Take `CN(C)c1cccc2c(S(=O)(=O)N[C@@H](Cc3ccccc3)C(=O)N[C@@H](CC(=O)O)C(=O)N[C@@H](CCCNC(=N)N)C(N)=O)cccc12` [Dansyl-FDR-amide] (Dansyl-Phe-Asp-Arg-NH2): the “Relative Binding Index (RBI)” value is −9 a.u.
For the compound `CC(C)[C@H](NC(=O)[C@H](CCC(=O)O)NS(=O)(=O)c1cccc2c(N(C)C)cccc12)C(=O)N[C@@H](CCCNC(=N)N)C(N)=O` [Dansyl-EVR-amide] (Dansyl-Glu-Val-Arg-NH2), the “Relative Binding Index (RBI)” value is on record as 12 a.u.
Regarding `CC(C)[C@H](NC(=O)[C@H](CCCCN)NS(=O)(=O)c1cccc2c(N(C)C)cccc12)C(=O)N[C@@H](CCCNC(=N)N)C(N)=O` [Dansyl-KVR-amide] (Dansyl-Lys-Val-Arg-NH2), the “Relative Binding Index (RBI)” value worked out at 20 a.u.
With `CN(C)c1cccc2c(S(=O)(=O)N3CCC[C@H]3C(=O)N[C@@H](Cc3cnc[nH]3)C(=O)N[C@@H](CCCNC(=N)N)C(N)=O)cccc12` [Dansyl-PHR-amide] (Dansyl-Pro-His-Arg-NH2) the figure was −54 a.u; with `CC(C)C[C@H](NC(=O)[C@@H]1CCCN1S(=O)(=O)c1cccc2c(N(C)C)cccc12)C(=O)N[C@@H](CCCNC(=N)N)C(N)=O` [Dansyl-PLR-amide] (Dansyl-Pro-Leu-Arg-NH2), −56 a.u.
Take `CN(C)c1cccc2c(S(=O)(=O)N[C@@H](CC(=O)O)C(=O)N[C@@H](CC(=O)O)C(=O)N[C@@H](CCCNC(=N)N)C(N)=O)cccc12` [Dansyl-DDR-amide] (Dansyl-Asp-Asp-Arg-NH2): the “Relative Binding Index (RBI)” value is −24 a.u.
Regarding `CN(C)c1cccc2c(S(=O)(=O)N[C@@H](CCC(=O)O)C(=O)N[C@@H](Cc3ccccc3)C(=O)N[C@@H](CCCNC(=N)N)C(N)=O)cccc12` [Dansyl-EFR-amide] (Dansyl-Glu-Phe-Arg-NH2), the “Relative Binding Index (RBI)” value is reported as 15 a.u.
Regarding `C[C@@H](O)[C@H](NS(=O)(=O)c1cccc2c(N(C)C)cccc12)C(=O)N[C@@H](CC(N)=O)C(=O)N[C@@H](CCCNC(=N)N)C(N)=O` [Dansyl-TNR-amide] (Dansyl-Thr-Asn-Arg-NH2), the “Relative Binding Index (RBI)” value was −7 a.u.
Take `CC(C)C[C@H](NC(=O)[C@H](Cc1c[nH]c2ccccc12)NS(=O)(=O)c1cccc2c(N(C)C)cccc12)C(=O)N[C@@H](CCCNC(=N)N)C(N)=O` [Dansyl-WLR-amide]: the “Relative Binding Index (RBI)” value was found to be 0 a.u.
Take `CC[C@H](C)[C@H](NC(=O)[C@H](C)NS(=O)(=O)c1cccc2c(N(C)C)cccc12)C(=O)N[C@@H](CCCNC(=N)N)C(N)=O` [Dansyl-AIR-amide] (Dansyl-Ala-Ile-Arg-NH2): the “Relative Binding Index (RBI)” value is 19 a.u.
For `CN(C)c1cccc2c(S(=O)(=O)N[C@@H](Cc3c[nH]c4ccccc34)C(=O)N[C@@H](CCCNC(=N)N)C(=O)N[C@@H](CCCNC(=N)N)C(N)=O)cccc12` [Dansyl-WRR-amide] (Dansyl-Trp-Arg-Arg-NH2), the “Relative Binding Index (RBI)” value came out at 7 a.u.
Take `CC(C)C[C@H](NS(=O)(=O)c1cccc2c(N(C)C)cccc12)C(=O)N[C@H](C(=O)N[C@@H](CCCNC(=N)N)C(N)=O)C(C)C` [Dansyl-LVR-amide] (Dansyl-Leu-Val-Arg-NH2): the “Relative Binding Index (RBI)” value is given as −37 a.u.
Turning to `CN(C)c1cccc2c(S(=O)(=O)N[C@@H](CC(=O)O)C(=O)N[C@@H](CCCNC(=N)N)C(=O)N[C@@H](CCCNC(=N)N)C(N)=O)cccc12` [Dansyl-DRR-amide] (Dansyl-Asp-Arg-Arg-NH2), the “Relative Binding Index (RBI)” value is −7 a.u.
With `CC(C)CC(NC(=O)[C@H](CCCCN)NS(=O)(=O)c1cccc2c(N(C)C)cccc12)C(=O)N[C@@H](CCCNC(=N)N)C(N)=O` (some centres unmarked) [Dansyl-KLR-amide] (Dansyl-Lys-[ξL]-Arg-NH2), the “Relative Binding Index (RBI)” value stood at 16 a.u.
Regarding `CN(C)c1cccc2c(S(=O)(=O)N[C@@H](Cc3cnc[nH]3)C(=O)N[C@@H](CCCCN)C(=O)N[C@@H](CCCNC(=N)N)C(N)=O)cccc12` [Dansyl-HKR-amide] (Dansyl-His-Lys-Arg-NH2), the “Relative Binding Index (RBI)” value came to 14 a.u.
The result for `CC(C)[C@H](NC(=O)[C@H](Cc1ccccc1)NS(=O)(=O)c1cccc2c(N(C)C)cccc12)C(=O)N[C@@H](CCCNC(=N)N)C(N)=O` [Dansyl-FVR-amide] (Dansyl-Phe-Val-Arg-NH2) reads 5 a.u; that for `CN(C)c1cccc2c(S(=O)(=O)N[C@@H](Cc3c[nH]c4ccccc34)C(=O)N[C@@H](Cc3c[nH]c4ccccc34)C(=O)N[C@@H](CCCNC(=N)N)C(N)=O)cccc12` [Dansyl-WWR-amide] (Dansyl-Trp-Trp-Arg-NH2), 17 a.u; that for `CN(C)c1cccc2c(S(=O)(=O)N[C@@H](Cc3cnc[nH]3)C(=O)N[C@@H](CCCNC(=N)N)C(=O)N[C@@H](CCCNC(=N)N)C(N)=O)cccc12` [Dansyl-HRR-amide] (Dansyl-His-Arg-Arg-NH2), 15 a.u.
Consider `CC(C)[C@H](NS(=O)(=O)c1cccc2c(N(C)C)cccc12)C(=O)N[C@@H](Cc1cnc[nH]1)C(=O)N[C@@H](CCCNC(=N)N)C(N)=O` [Dansyl-VHR-amide] (Dansyl-Val-His-Arg-NH2), for which the “Relative Binding Index (RBI)” value was −10 a.u.
Regarding `CC[C@H](C)[C@H](NS(=O)(=O)c1cccc2c(N(C)C)cccc12)C(=O)NCC(=O)N[C@@H](CCCNC(=N)N)C(N)=O` [Dansyl-IGR-amide] (Dansyl-Ile-Gly-Arg-NH2), the “Relative Binding Index (RBI)” value is reported as −6 a.u.
As for `C[C@H](NC(=O)[C@H](Cc1c[nH]cn1)NS(=O)(=O)c1cccc2c(N(C)C)cccc12)C(=O)N[C@@H](CCCNC(=N)N)C(N)=O` [Dansyl-HAR-amide] (Dansyl-His-Ala-Arg-NH2), the “Relative Binding Index (RBI)” value was −32 a.u.
As for `CN(C)c1cccc2c(S(=O)(=O)N[C@@H](Cc3c[nH]cn3)C(=O)N[C@@H](Cc3c[nH]cn3)C(=O)N[C@@H](CCCNC(=N)N)C(N)=O)cccc12` [Dansyl-HHR-amide] (Dansyl-His-His-Arg-NH2), the “Relative Binding Index (RBI)” value was found to be 11 a.u.
For `CN(C)c1cccc2c(S(=O)(=O)N[C@@H](CCC(=O)O)C(=O)N[C@@H](CC(N)=O)C(=O)N[C@@H](CCCNC(=N)N)C(N)=O)cccc12` [Dansyl-ENR-amide] (Dansyl-Glu-Asn-Arg-NH2), the “Relative Binding Index (RBI)” value was 18 a.u.
For the compound `CN(C)c1cccc2c(S(=O)(=O)N[C@@H](CCCCN)C(=O)N[C@@H](CC(=O)O)C(=O)N[C@@H](CCCNC(=N)N)C(N)=O)cccc12` [Dansyl-KDR-amide] (Dansyl-Lys-Asp-Arg-NH2), the “Relative Binding Index (RBI)” value was 7 a.u.
Turning to `CC(C)[C@H](NS(=O)(=O)c1cccc2c(N(C)C)cccc12)C(=O)NCC(=O)N[C@@H](CCCNC(=N)N)C(N)=O` [Dansyl-VGR-amide] (Dansyl-Val-Gly-Arg-NH2), the “Relative Binding Index (RBI)” value came to 1 a.u.
As to `CN(C)c1cccc2c(S(=O)(=O)N[C@@H](CO)C(=O)N[C@@H](CCC(N)=O)C(=O)N[C@@H](CCCNC(=N)N)C(N)=O)cccc12` [Dansyl-SQR-amide] (Dansyl-Ser-Gln-Arg-NH2), the “Relative Binding Index (RBI)” value is 30 a.u.
For the compound `CC(C)[C@H](NC(=O)[C@H](Cc1c[nH]cn1)NS(=O)(=O)c1cccc2c(N(C)C)cccc12)C(=O)N[C@@H](CCCNC(=N)N)C(N)=O` [Dansyl-HVR-amide] (Dansyl-His-Val-Arg-NH2), the “Relative Binding Index (RBI)” value was 12 a.u.
`C[C@@H](O)[C@H](NS(=O)(=O)c1cccc2c(N(C)C)cccc12)C(=O)N[C@@H](CO)C(=O)N[C@@H](CCCNC(=N)N)C(N)=O` [Dansyl-TSR-amide] (Dansyl-Thr-Ser-Arg-NH2): the “Relative Binding Index (RBI)” value is 12 a.u.
For the compound `CC(C)CC(NC(=O)[C@H](C)NS(=O)(=O)c1cccc2c(N(C)C)cccc12)C(=O)N[C@@H](CCCNC(=N)N)C(N)=O` (some centres unmarked) [Dansyl-ALR-amide] (Dansyl-Ala-[ξL]-Arg-NH2), the “Relative Binding Index (RBI)” value is on record as 4 a.u.
Turning to `CC(C)C[C@H](NC(=O)CNS(=O)(=O)c1cccc2c(N(C)C)cccc12)C(=O)N[C@@H](CCCNC(=N)N)C(N)=O` [Dansyl-GLR-amide] (Dansyl-Gly-Leu-Arg-NH2), the “Relative Binding Index (RBI)” value is recorded as 17 a.u.
With `CSCC[C@H](NS(=O)(=O)c1cccc2c(N(C)C)cccc12)C(=O)N[C@@H](C)C(=O)N[C@@H](CCCNC(=N)N)C(N)=O` [Dansyl-MAR-amide] (Dansyl-Met-Ala-Arg-NH2) the figure was −93 a.u; with `CN(C)c1cccc2c(S(=O)(=O)N[C@@H](Cc3ccccc3)C(=O)N[C@@H](Cc3ccc(O)cc3)C(=O)N[C@@H](CCCNC(=N)N)C(N)=O)cccc12` [Dansyl-FYR-amide] (Dansyl-Phe-Tyr-Arg-NH2), 8 a.u.
Turning to `CN(C)c1cccc2c(S(=O)(=O)N[C@@H](CO)C(=O)N[C@@H](CCCNC(=N)N)C(=O)N[C@@H](CCCNC(=N)N)C(N)=O)cccc12` [Dansyl-SRR-amide] (Dansyl-Ser-Arg-Arg-NH2), the “Relative Binding Index (RBI)” value was 15 a.u.
The result for `C[C@H](NS(=O)(=O)c1cccc2c(N(C)C)cccc12)C(=O)N1CCC[C@H]1C(=O)N[C@@H](CCCNC(=N)N)C(N)=O` [Dansyl-APR-amide] (Dansyl-Ala-Pro-Arg-NH2) reads 15 a.u.
On to `C[C@@H](O)[C@H](NS(=O)(=O)c1cccc2c(N(C)C)cccc12)C(=O)N[C@@H](CCC(N)=O)C(=O)N[C@@H](CCCNC(=N)N)C(N)=O` [Dansyl-TQR-amide] (Dansyl-Thr-Gln-Arg-NH2), for which the “Relative Binding Index (RBI)” value was determined as 5 a.u.
